Measured values reported in US10961234B2, “Oxazole derivatives for use in the treatment of cancer” (LIFEARC, priority 2016, dated 2021).

Legend:
WT full length PAICS = biological target: T1, WT full length PAICS (Homo sapiens, UniProt P22234); assay: Biochemical assay to measure PAICS activity (Transcreener ADP2 FI, SAICAR synthetase reaction); settings: PAICS 2.5 nM, 30 mins pre-incubation, ADP detection by fluorescence intensity
T1 construct: 5 μl WT full length PAICS (final assay concentration, fac, 2.5 nM) in basic buffer
T1 sequence (P22234 1-425): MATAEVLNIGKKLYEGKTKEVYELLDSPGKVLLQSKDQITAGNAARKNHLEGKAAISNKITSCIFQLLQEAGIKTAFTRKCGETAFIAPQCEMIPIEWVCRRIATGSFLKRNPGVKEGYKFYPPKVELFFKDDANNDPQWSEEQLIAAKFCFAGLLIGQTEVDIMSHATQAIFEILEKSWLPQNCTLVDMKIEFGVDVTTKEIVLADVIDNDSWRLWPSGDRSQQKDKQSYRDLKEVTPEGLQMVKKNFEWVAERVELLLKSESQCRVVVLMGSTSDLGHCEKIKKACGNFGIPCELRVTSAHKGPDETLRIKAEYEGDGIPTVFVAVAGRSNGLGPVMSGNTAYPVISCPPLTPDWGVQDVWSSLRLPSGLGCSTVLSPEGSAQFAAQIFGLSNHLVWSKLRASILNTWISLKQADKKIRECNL
Text: The biochemical assay was used to measure PAICS SAICAR synthetase-mediated conversion of CAIR, aspartic acid and ATP to SAICAR, ADP and inorganic phosphate (PI), post-AIR/CAIR equilibration (see FIG. 3). This was achieved by detecting the ADP generated during the reaction, using Bellbrook Lab's Transcreener ADP^2 FI assay. An increase in the fluorescence intensity is directly proportional to the amount of PAICS activity.
The Transcreener ADP^2 FI assay is a homogeneous competitive displacement fluorescence intensity assay which uses direct immunodetection of ADP. Displacement of the tracer by ADP causes an increase in the fluorescence at excitation 590 nm and emission 617 nm (FIG. 3).
5 μl WT full length PAICS (final assay concentration, fac, 2.5 nM) in basic buffer, added to black, non-binding, 384-well plates (Corning #3575), columns 1 to 22.5 μl basic buffer was added to columns 23+24 (negative control). PAICS stock at 31.9 μM from the PI's lab (Steve Firestine). Basic buffer contained 50 mM Tris-HCl pH8 and 0.5 mM EDTA, fac.
1 μl compound in 100% DMSO added per well, or 1 μl 100% DMSO to positive controls (columns 1+2) and negative controls (columns 23+24). Final assay top concentration of compound either 1 mM or 30 μM, serially diluted with half-log dilutions across the plate in duplicate (one 10-point concentration response curve across wells 3 to 12, another across 13 to 22). Compounds pre-incubated with PAICS enzyme for 30 mins at RT.
2 μl CAIR added (fac 10 μM) in basic buffer plus 25 mM MgCl2 and 50 mM KHCO3 fac to all wells. CAIR stock 50 mM from Steve Firestine's lab. 1 hr RT incubation for AIR-CAIR equilibration. NB: ˜50% CAIR is decarboxylated during equilibration therefore 5 μM remains for the synthetase reaction.
2 μl ATP/aspartic acid added (fac 30 μM/180 μM) in reaction buffer to all wells. 30 mins RT incubation for appropriate level of ATP turnover. Reaction buffer contained basic buffer plus 10 mM DTT, 0.01% BSA and 0.01% Brij 35, fac.
10 μl ADP detection reagent added to all wells (as per instructions, Transcreener ADP^2 FI kit, BellBrook Labs #3013-10K). Incubation for 1 h at RT to allow antibody equilibration. Fluorescence intensity determined using a Tecan Safire2 (excitation at 590 nm, emission at 617 nm).

[1] = tested on: LM2 and MDA-MB-231 breast cancer cell lines; assay: PAICS 2D cell proliferation assay; assay type: cell-based; settings: Homo sapiens; 72 hours incubation; cell line (LM2 or MDA-MB-231) not given
Protocol: Frozen cryovial stocks of LM2 and MDA-MB-231 breast cancer cell lines were thawed and cultured in 4.5 g/L glucose DMEM (31966-047, Invitrogen) supplemented with 10% Fetal Bovine Serum (10500-064, Invitrogen) until confluent in a T175 flask. Cells were incubated at 37° C. with 5% CO2 in a humidified incubator.
Cells were collected from T175 flasks by washing with PBS (10010-056, Invitrogen) and dissociated using Accutase (A6964, Sigma Aldrich). This was followed by centrifuging (1200 rpm, 5 min) and resuspending the cells in 10 ml of media containing 1% penicillin/streptomycin (15140-122, Invitrogen). Cells were counted by trypan blue exclusion method using an automated cell counter (Cellometer) and diluted to a concentration of 40,000/ml. 1000 cells were then seeded into 384-well white-walled plates (Corning, 3707) in a volume of 25 μl. Plates were incubated overnight at 37° C. with 5% CO2.
After 24 hours, PAICS compounds were added onto the assay plates using an HP D300 Digital Dispenser (Hewlett Packard). 10 mM stocks were used and dispensed as a 10 point concentration response curve (CRC) ½ log dilution series with a final top concentration of 100 μM. Controls were added onto each plate: positive controls included Staurosporine CRC (100 μM stock dispensed as a 10 point CRC ½ log dilution series with a final top concentration of 1 μM) and PAICS compound MRT00211919 (10 mM stock dispensed as a 10 point CRC ½ log dilution series with a final top concentration of 100 μM); a high control of Staurosporine (0.1 μM (LM2), 0.316 μM (MDA-MB-231) FAC) and a low control of media containing 1% DMSO. A final concentration of 1% DMSO was then added across the plates for normalisation. Following compound addition, assay plates were incubated for 72 hours at 37° C. with 5% CO2.
After 72 h incubation, dead and viable cells were measured in each assay plate. Cytotoxicity was assessed through fluorescent DNA staining using the CellTox™ Green Cytotoxicity Assay kit (G8743, Promega) following the manufacturer's multiplexing protocol. Impaired cell membrane integrity results in the access of dye to stain DNA allowing quantification of dead cells. Cell viability was determined following ATP quantification using the CellTiter-Glo® Luminescent Cell Viability Assay kit (G7572, Promega) following the manufacturer's protocol. ATP released from lysed cells allowed for the generation of a signal proportional to the number of cells present in the well. All endpoint reads were performed using the PheraSTAR Plus (BMG Labtech). Data is expressed as % viable cells and % dead cells against controls (mean±SEM of duplicate curves).

Compound	IC50 (WT full length PAICS) [µM]	EC50 [1] [µM]
Nc1nc(C(=O)Nc2cc(-c3cnn(C4CCN(CCO)CC4)c3)ccc2Cl)co1 [Example 66, 2-Amino-N-(2-chloro-5-{1-[1-(2-hydroxyethyl)piperidin-4-yl]-1H-pyrazol-4-yl}phenyl)-1,3-oxazole-4-carboxamide]	> 0.1	0.1 to 0.25
CN(C)CCNC(=O)Cn1cc(-c2ccc(Cl)c(NC(=O)c3coc(N)n3)c2)cn1 [Example 58, 2-Amino-N-{2-chloro-5-[1-(2-{[2-(dimethylamino)ethyl]amino}-2-oxoethyl)-1H-pyrazol-4-yl]phenyl}-1,3-oxazole-4-carboxamide]	0.025 to 0.1	0.25 to 0.5
CNCCCn1cc(-c2ccc(Cl)c(NC(=O)c3coc(N)n3)c2)cn1 [Example 49, 2-Amino-N-(2-chloro-5-(1-(3-(methylamino)propyl)-1H-pyrazol-4-yl)phenyl)oxazole-4-carboxamide]	< 0.01	< 0.1
CN(C)C1CCN(C(=O)Cn2cc(-c3ccc(Cl)c(NC(=O)c4coc(N)n4)c3)cn2)CC1 [Example 59, 2-Amino-N-[2-chloro-5-(1-{2-[4-(dimethylamino)piperidin-1-yl]-2-oxoethyl}-1H-pyrazol-4-yl)phenyl]-1,3-oxazole-4-carboxamide]	0.025 to 0.1	0.25 to 0.5
Nc1nc(C(=O)Nc2cc(-c3ccc(OC4CCNC4)nc3)ccc2Cl)co1 (stereo not shown) [Example 68, 2-Amino-N-(2-chloro-5-(6-(pyrrolidin-3-yloxy)pyridin-3-yl)phenyl)oxazole-4-carboxamide]	0.01 to 0.025	0.25 to 0.5
CNCCn1cc(-c2ccc(Cl)c(NC(=O)c3coc(N)n3)c2)cn1 [Example 50, 2-Amino-N-(2-chloro-5-(1-(2-(methylamino)ethyl)-1H-pyrazol-4-yl)phenyl)oxazole-4-carboxamide]	0.01 to 0.025	0.1 to 0.25
N#Cc1nn(C2CCNCC2)cc1-c1ccc(Cl)c(NC(=O)c2coc(N)n2)c1 [Example 53, 2-Amino-N-(2-chloro-5-(3-cyano-1-(piperidin-4-yl)-1H-pyrazol-4-yl)phenyl)oxazole-4-carboxamide]	0.01 to 0.025	0.1 to 0.25
Nc1nc(C(=O)Nc2cc(-c3ccc(N4CCNCC4)cc3)ccc2Cl)co1 [Example 39, 2-Amino-N-[4-chloro-4′-(piperazin-1-yl)biphenyl-3-yl]-1,3-oxazole-4-carboxamide]	> 0.1	0.25 to 0.5
Nc1nc(C(=O)Nc2cc(-c3cnn(C4CCNCC4)c3)ccc2Cl)co1 [Example 40]	0.025 to 0.1	0.25 to 0.5

Continued, values first:

IC50 (WT full length PAICS) [µM]	EC50 [1] [µM]	Compound
0.025 to 0.1	0.25 to 0.5	CSc1ccc(-c2ccc(OCCCN(C)C)nc2)cc1NC(=O)c1coc(N)n1 [Example 92, 2-Amino-N-[5-{6-[3-(dimethylamino)propoxy]pyridin-3-yl}-2-(methylsulfanyl)phenyl]-1,3-oxazole-4-carboxamide]
0.025 to 0.1	0.25 to 0.5	CN(C)CCCOc1ccc(-c2ccc(Cl)c(NC(=O)c3coc(N)n3)c2)nc1 [Example 93, 2-Amino-N-(2-chloro-5-{5-[3-(dimethylamino)propoxy]pyridin-2-yl}phenyl)-1,3-oxazole-4-carboxamide]
0.01 to 0.025	0.25 to 0.5	Nc1nc(C(=O)Nc2cc(-c3ccc(CN[C@H]4CC[C@H](N)CC4)nc3)ccc2Cl)co1 [Example 77, 2-Amino-N-[5-(6-{[(trans-4-aminocyclohexyl)amino]methyl}pyridin-3-yl)-2-chlorophenyl]-1,3-oxazole-4-carboxamide]
0.01 to 0.025	< 0.1	CNCC1CCN(Cc2ncc(-c3ccc(Cl)c(NC(=O)c4coc(N)n4)c3)s2)CC1 [Example 94, 2-Amino-N-{2-chloro-5-[2-({4-[(methylamino)methyl]piperidin-1-yl}methyl)-1,3-thiazol-5-yl]phenyl}-1,3-oxazole-4-carboxamide]
0.01 to 0.025	0.1 to 0.25	CN(C)CCCOc1ccc(-c2ccc(Cl)c(NC(=O)c3coc(N)n3)c2)cn1 [Example 72, 2-Amino-N-(2-chloro-5-{6-[3-(dimethylamino)propoxy]pyridin-3-yl}phenyl)-1,3-oxazole-4-carboxamide]
0.01 to 0.025	0.1 to 0.25	CC(C)NCCCOc1ccc(-c2ccc(Cl)c(NC(=O)c3coc(N)n3)c2)cn1 [Example 71, 2-Amino-N-(2-chloro-5-(6-(3-(isopropylamino)propoxy)pyridin-3-yl)phenyl)oxazole-4-carboxamide]
0.01 to 0.025	0.25 to 0.5	Nc1nc(C(=O)Nc2cc(-c3ccc(OCC4CCCNC4)nc3)ccc2Cl)co1 (stereo not shown) [Example 69, 2-Amino-N-(2-chloro-5-(6-(piperidin-3-ylmethoxy)pyridin-3-yl)phenyl)oxazole-4-carboxamide]
< 0.01	< 0.1	Nc1nc(C(=O)Nc2cc(-c3cnc(OC4CCNCC4)s3)ccc2Cl)co1 [Example 87, 2-Amino-N-{2-chloro-5-[2-(piperidin-4-yloxy)-1,3-thiazol-5-yl]phenyl}-1,3-oxazole-4-carboxamide]
0.025 to 0.1	0.1 to 0.25	CN(C)CCOc1ccc(-c2ccc(Cl)c(NC(=O)c3coc(N)n3)c2)cc1 [Example 75, 2-Amino-N-{4-chloro-4′-[2-(dimethylamino)ethoxy]biphenyl-3-yl}-1,3-oxazole-4-carboxamide]
0.01 to 0.025	0.1 to 0.25	CNCCCOc1ccc(-c2ccc(Cl)c(NC(=O)c3coc(N)n3)c2)cn1 [Example 70, 2-Amino-N-(2-chloro-5-(6-(3-(methylamino)propoxy)pyridin-3-yl)phenyl)oxazole-4-carboxamide]
< 0.01	< 0.1	CNC1CCC(n2cc(-c3ccc(Cl)c(NC(=O)c4coc(N)n4)c3)cn2)CC1 (mixture of isomers) [Example 80, 2-Amino-N-(2-chloro-5-{1-[4-(methylamino)cyclohexyl]-1H-pyrazol-4-yl}phenyl)-1,3-oxazole-4-carboxamide]
